Where two headings read alike, the source gives them in different places.
How the values were obtained:
Flu B = assay: Influenza inhibition assay (ICC on MDCK cells); format: cell-based; details: dose–response
H1N1N09 = assay: Influenza inhibition assay (ICC on MDCK cells); format: cell-based, Influenza A/Netherlands/602/2009 (H1N1); details: Influenza A virus, dose–response
[1] = CMC assay (conductivity method); format: physicochemical; details: in water
Method: The CMC of antiviral compounds was measured by the conductivity method. Antiviral compounds were diluted into water at different concentrations, and the conductivity (μS/cm) was measured at each concentration with a conductivity meter (Mettler Toledo, Switzerland). The CMC was identified as the point on the conductivity-concentration plot where the slope changed.

[2] = Cytotoxicity assay on Vero cells (MTS); format: cell-based; details: African green monkey
Method: Cytotoxicity assay was performed on the Vero cell line with the MTS assay. The cells were plated for 24 h in DMEM medium containing 10% FBS and 1% penicillin/streptomycin with a seeding density of 2 × 10^4 per well in a 96-well plate. […] Then, the cells were washed with PBS twice, followed by the addition of 20 μL MTS reagents together with 80 μL DMEM medium. They were then incubated at 37 °C for 4 h. The cell viability was checked by absorbance at 490 nm with a plate reader.

HSV-2 [3] = assay: HSV-2 virucidal assay; format: cell-based, herpes simplex virus type 2; details: virucidal titration at 90–99% viral inhibition concentration, Vero cells
HSV-2 [4] = assay: HSV-2 inhibition assay (plaque reduction on Vero cells, pretreatment); format: cell-based, herpes simplex virus type 2; details: Human alphaherpesvirus 2, Vero, pretreatment condition
[5] = Partition coefficient octanol/water (UV-vis); format: physicochemical
Method: UV–vis spectroscopy was employed first to determine the correct dilution of all compounds. The seven compounds in this study were B3C11SO4, B3C11SO3, B3C6SO3, B3C6SO4, C4C11SO4, C4C11SO3, and C4C3SO3. The protocol is the same for all the compounds: in the beginning, all compounds were dissolved in water at a concentration of 1 mg/mL. The solution was put into a quartz cuvette and then into the UV–vis spectrometer, where the absorbance from wavelengths 600 to 190 nm was investigated. All of the samples presented a peak in absorbance around 200 nm. The samples were diluted further until the absorbance peak reached values near 0.90.
A biphasic solution composed of 1.5 mL of a water solution of antiviral +1.5 mL of octanol was thoroughly mixed for 60 min. After the mixing, the two phases were separated by centrifugation for 1 min using a benchtop centrifuge at 5000 rpm. The water phase saturated in octanol and the octanol phase saturated with water were extracted and characterized by UV–vis spectrometry.
The partition coefficient (log P) was then calculated using formula : logP=log(Absorbanceofoctanolphase/Absorbanceofwaterphase) 1

HSV-2 [6] = assay: HSV-2 inhibition assay (plaque reduction on Vero cells, pretreatment); format: cell-based, herpes simplex virus type 2; details: for IC99: HSV-2 inhibition, concentration intended to inhibit infection by at least 90 and 99%; for IC50: Human alphaherpesvirus 2, Vero, dose–response, Vero cells
Method: The inhibitory effect of compounds on HSV-2 was evaluated by plaque reduction assay. Vero cells were plated 24 h before the experiment in 24-well plates with a seeding density of 10^5 cells/well. Serial dilutions of compounds in DMEM medium (2% FBS, 1% P/S) were prepared, followed by the addition of aliquots of HSV-2 such that the final titer of the virus was 200 pfu/mL (with MOI = 0.0005). Compounds/virus mixtures were incubated at 37 °C for 1 h and added to the cells (250 μL/well). Followed by incubation at 37 °C for 1 h, the viral inoculum was removed. The cells were overlaid with DMEM medium containing 1.2% methylcellulose, 2% FBS, and 1% P/S. After 48 h of incubation at 37 °C, 5% CO2, the cells were fixed and stained with 0.1% crystal violet in 20% ethanol. Finally, the plaques were counted. Each group of experiments in the inhibition assay was performed in triplicate. The concentration producing a 50% reduction in plaque formation was determined using Prism 10 software (GraphPad Software, USA) by comparing compound-treated and untreated cells. Infectivity was calculated as the number of plaques in compound-treated cells/number of plaques in untreated cells × 100%.

H3N2 = assay: Influenza inhibition assay (ICC on MDCK cells, pretreatment); format: cell-based; details: Influenza A virus
HSV-1 [7] = system: HSV-1
[8] = Cytotoxicity assay for MDCK (MTT); format: cell-based; details: dog, MDCK cells
Method: MTT assay was used to evaluate the cytotoxicity on MDCK cells. 10^4 cells per well were seeded in a 96-well plate 1 day before the assay. A dose range of each drug (from 4.11 μM to 1000 μM) was added to the cells in serum-free medium for MDCK cells. The antivirals were incubated on the cells for 24 h at 37 °C. After incubation, the cells were washed, and MTT reagent (Promega) was added to the cells for 4 h at 37 °C according to the manufacturer’s instructions. The cells were then washed, and 50 μL of DMSO was added to free the reagent. Subsequently, the absorbance was read at 579 nm. Percentages of viability were calculated by comparing the absorbance in treated wells and untreated conditions.

HSV-2 [9] = assay: Growth of viruses in the presence of compounds (posttreatment), HSV-2; format: cell-based, herpes simplex virus type 2; details: posttreatment condition, Vero cells
BSA = target: T1, BSA (Bos taurus, UniProt P02769); assay: Isothermal titration calorimetry with BSA; format: binding, bovine; details: ITC, H2O
T1 construct: purchased Sigma-Aldrich

HSV-1 [10] = assay: HSV-1 inhibition assay (plaque reduction on Vero cells); format: cell-based, herpes simplex virus type 1; details: Human alphaherpesvirus 1, dose–response
Method: The inhibitory effect of compounds on HSV-1 was evaluated by plaque reduction assay. Vero cells were plated 24 h before the experiment in 24-well plates at a density of 10^5 cells/well. Serial dilutions of compounds in DMEM medium (2% FBS, 1% P/S) were prepared, followed by the addition of aliquots of HSV-1 such that the final titer of the virus is […] (with MOI = 0.0005). Compounds/virus mixtures were incubated at 37 °C for 1 h and added to the cells (250 μL/well). Followed by incubation at 37 °C for 1 h, the viral inoculum was removed. The cells were overlaid with DMEM medium containing 1.2% methylcellulose, 2% FBS, and 1% P/S. After 3 days of incubation at 37 °C, 5% CO2, the cells were fixed and stained with 0.1% crystal violet in 20% ethanol, and plaques were counted. Each group of experiments in the inhibition assay was performed in triplicate. The concentration producing a 50% reduction in plaque formation was determined using the Prism 10 software (GraphPad Software, USA) by comparing compound-treated and untreated cells. Infectivity was calculated as the number of plaques in compound-treated cells/number of plaques in untreated cells × 100%.

[11] = target: glycoprotein D (gD) of HSV; assay: Isothermal titration calorimetry with glycoprotein D; format: binding; details: ITC, 25°C
Method: Isothermal titration calorimetry (ITC) experiments were conducted using ITC200 instruments (GE Healthcare, USA) equipped with a 200 μL sample cell and a 40 μL syringe. Thirteen injections were applied. The first data point was excluded. BSA protein and viral protein concentrations in the cell were approximately 50 μM and 1 mg/mL, respectively, and ligand concentrations in the syringe were roughly 2 mM. They were centrifuged at 2000g for 2 min to remove bubbles. The titration was performed at 25 or 37 °C, with data analyzed using MicroCal PEAQ ITC software. Baseline correction was applied, and Nitpic/Sedphat was used for automated integration to ensure precise binding parameter determination.

H1N1 clinical = assay: Influenza inhibition assay (ICC on MDCK cells); format: cell-based; details: Influenza A virus, dose–response
HSV-2 [12] = system: HSV-2; design: method as in Zhu et al., 2024 (citation number not given); details: earlier paper of the authors on benzene-core MEIs; ref Zhu et al., 2024 (citation number not given); read-out: IC50 against HSV-2; cited from earlier work
[13] = dose–response, read-out: IC50 H3N2
[14] = pretreatment condition, read-out: pretreatment IC50, H3N2

T1 sequence (P02769 25-607): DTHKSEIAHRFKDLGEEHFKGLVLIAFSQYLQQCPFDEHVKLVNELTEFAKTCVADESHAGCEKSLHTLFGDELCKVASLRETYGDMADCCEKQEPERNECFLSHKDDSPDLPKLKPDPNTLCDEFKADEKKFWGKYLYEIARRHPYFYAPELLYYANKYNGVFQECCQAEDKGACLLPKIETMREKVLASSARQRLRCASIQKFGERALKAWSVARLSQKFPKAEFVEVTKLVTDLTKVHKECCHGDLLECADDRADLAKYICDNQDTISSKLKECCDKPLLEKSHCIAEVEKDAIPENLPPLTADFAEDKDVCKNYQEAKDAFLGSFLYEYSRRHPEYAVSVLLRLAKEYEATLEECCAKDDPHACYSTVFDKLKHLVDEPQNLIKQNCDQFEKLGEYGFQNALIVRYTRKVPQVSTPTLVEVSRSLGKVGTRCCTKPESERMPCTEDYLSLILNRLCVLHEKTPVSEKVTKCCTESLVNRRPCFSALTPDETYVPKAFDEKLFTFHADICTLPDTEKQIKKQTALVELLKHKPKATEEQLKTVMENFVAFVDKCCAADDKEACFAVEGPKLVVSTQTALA

Compound	IC50 (Flu B) [µM]	IC50 (H1N1N09) [µM]	CMC [1] [µM]	CC50 at 48 h [2] [µM]	Virucidal activity, HSV-2 (HSV-2 [3])	IC50 (HSV-2 [4]) [µM]	logP [5]	IC99 (HSV-2 [6]) [µM]	IC50 (HSV-2 [6]) [µM]	IC50 (H3N2; [13]) [µM]	IC50 (H3N2; [14]) [µM]	Virucidal activity, V-1 (HSV-1 [7])	CC50 at 24 h [8] [µM]	IC50 (HSV-2 [9]; Human alphaherpesvirus 2, Vero) [µM]	N (binding sites, BSA) (BSA; 25 °C (Table 5))	ΔG (BSA) (BSA; 25 °C (Table 5))	ΔH (BSA) (BSA; 25 °C (Table 5))	–ΔTS (BSA) (BSA; 25 °C (Table 5))	-∆TS (BSA) (BSA; 25 °C (Table S3)) [kcal/mol]	IC50 (HSV-1 [10]) [µM]	other results
O=S(=O)(O)CCCSCc1cc2c(cc1CSCCCS(=O)(=O)O)OCCOCCOc1cc(CSCCCS(=O)(=O)O)c(CSCCCS(=O)(=O)O)cc1OCCOCCO2 [C4C3SO3]	> 1000	> 1000	462.69 ± 57	> 1000	S	173.4 ± 1.1	-2.45	446 ± 1.1	173.4 ± 1.1	> 1000	> 1000	S	> 1000	69.1 ± 1.01	0.5	–5.73 kcal/mol	–7.34 kcal/mol	1.61 kcal/mol	1.61	551.9 ± 2	Kd (BSA; 25 °C (Table 5), read-out: K d (BSA)): 63 µM; N (BSA) (BSA; 25 °C (Table S3)): 0.5; ∆G (BSA) (BSA; 25 °C (Table S3)): -5.73 kcal/mol; ∆H (BSA) (BSA; 25 °C (Table S3)): -7.34 kcal/mol; -∆TS (BSA) (BSA; 37 °C (Table S3)): 24.6 kcal/mol; Kd (BSA; 37 °C (Table S3)): 52.1 µM; N (BSA) (BSA; 37 °C (Table S3)): 0.397; ∆G (BSA) (BSA; 37 °C (Table S3)): -6.08 kcal/mol; ∆H (BSA) (BSA; 37 °C (Table S3)): -30.6 kcal/mol
O=S(=O)(O)CCCCCCSCc1cc(CSCCCCCCS(=O)(=O)O)cc(CSCCCCCCS(=O)(=O)O)c1 [B3C6SO3]	> 1000	> 1000	882.2 ± 18.9	> 1000	S	487	-2.39		487.3 ± 2.19	> 1000	> 1000	S	> 1000	180	no binding	no binding	no binding	no binding		502.3 ± 2.15	Kd [11]: 14.2 µM; IC50 (HSV-2 [9]): 181 ± 2.06 µM; K d (BSA) (BSA; 25 °C (Table 5)): no binding; IC50 (H1N1 clinical): > 1000 µM
O=S(=O)(O)OCCCCCCSCc1cc(CSCCCCCCOS(=O)(=O)O)cc(CSCCCCCCOS(=O)(=O)O)c1 [B3C6SO4]	> 1000	346.9 ± 1.94	1390 ± 45.6	> 1000		52.9 ± 1.9	-1.79	1328 ± 1.9	52.9 ± 1.9	> 1000	346.9 ± 1.94		> 1000	56.9 ± 1.48					7.2	208 ± 31.4	Kd [11]: 28.1 µM; Kd (BSA; 25 °C (Table S3)): 7.27 µM; N (BSA) (BSA; 25 °C (Table S3)): 1.69; ∆G (BSA) (BSA; 25 °C (Table S3)): -7.29 kcal/mol; ∆H (BSA) (BSA; 25 °C (Table S3)): -14.5 kcal/mol; -∆TS (BSA) (BSA; 37 °C (Table S3)): 0.938 kcal/mol; Kd (BSA; 37 °C (Table S3)): 1.4 µM; N (BSA) (BSA; 37 °C (Table S3)): 1.3; ∆G (BSA) (BSA; 37 °C (Table S3)): -7.99 kcal/mol; ∆H (BSA) (BSA; 37 °C (Table S3)): -8.93 kcal/mol; IC50 (HSV-2 [12]): 78.4 µM; IC50 (H1N1 clinical): > 1000 µM
